Measurements published in US6569446B1, “Solubilization of flavonols” (The Howard Foundation, priority 1996, dated 2003).
Converted amounts (≈) assume the structure as drawn.

Columns and labels:
[1] = Solubilization of quercetin, quercitrin and rutin by heat in water, grape anthocyanin and malvin chloride solutions (Example 6); assay type: physicochemical; conditions: thermodynamic from solid
Experimental: Quercetin is a flavonol aglycone. In fruit juices it exists as the glycoside. The purpose of the investigation was to examine the solubilization of glycosides of flavonols by anthocyanins. […] Samples were diluted in water 1:9 before reading. Aliquots of anthocyanin and water with and without the flavonol were treated similarly.
The same procedure was used for measuring the solubility of the flavonols in malvin chloride. In this case 1.8 mg malvin chloride was dissolved in 2.0 ml citrate buffer at pH3. To 1 ml was added 2 mg of the flavonol, the other 1 ml acted as a control. After heating, the mixture was cooled to room temperature, centrifuged, and the supernatant diluted 1:9 with 50% aqueous ethanol. The optical densities were measured at 375 nm.

[2] = Solubility of solid quercetin mixed with liquids at room temperature (Example 3); assay type: physicochemical; conditions: 20 °C, thermodynamic from solid, Room temp
physchem = assay type: physicochemical; conditions: 20 °C, aqueous with cosolvent or surfactant or cyclodextrin, kinetic from dmso stock
Experimental: The procedure used was as follows: anthocyanin powder was dissolved in deionised water to give concentrations of 0.625, 1.25, 2.5, 10 and 20 mg/ml. […] The mixtures were allowed to stand for 20 to 30 min and then centrifuged at 2000×g for 30 min at 20° C. The optical densities were measured at 258 nm and 375 nm as in Example 1. To 5 ml of each corresponding anthocyanin solution was added the same volume of ethanol determined above to give a precipitate, and the optical densities measured. […] The control was water.
Since quercitin is more soluble in aqueous ethanol than water a further series of controls were prepared in which quercetin in ethanol was added to water in amounts corresponding to those used in the test, and the solubilities likewise determined. […] To solubilize quercetin more anthocyanin was needed than quercetin w/w.

[3] = Solubility of solid quercetin in liquids after heating to boiling in microwave oven (Example 3); assay type: physicochemical; conditions: 20 °C, thermodynamic from solid
Experimental: To investigate dissolution by heat, the liquids were heated in a sealed tube for 1 min in a microwave oven (when boiling of the liquid occurred) and cooled to room temperature.

[4] = ileostomy subjects (Hollman et al 1995); cited from earlier work
[5] = Solubilization of quercetin in aqueous malvin chloride by addition of ethanol solution of quercetin (Example 5); assay type: physicochemical
Experimental: The anthocyanins can be divided into two major classes: the monomeric anthocyanins and the polymeric anthocyanins. A typical example of a monomeric anthocyanin is malvin chloride, a salt of the oxonium ion malvidin-3-glucose and the chloride ion. It can be obtained in a high state of purity (Indofine Inc, USA) and therefore used to determine the solubilizing effect of an anthocyanin monomer. The procedure was as follows: malvin chloride (2.2 mg) was dissolved in 2 ml citrate buffer (pH 3.0)—one ml acted as a control. […] Equal amounts of ethanol were added to the control. Each solution was diluted (1:9) with 5% aqueous ethanol and the optical density determined at 275 nm.

[6] = aqueous with cosolvent or surfactant or cyclodextrin
[7] = pH 3, aqueous with cosolvent or surfactant or cyclodextrin

Compound	solubility at 1 min [1, 6] [µg/mL]	solubility at 1 min [1, 7] [µg/mL]	solubility at 1 min ([1]; water) [µg/mL]	solubility at 3 h ([2]; aqueous with cosolvent or surfactant or cyclodextrin, Ethanol 12% v/v) [µg/mL]	solubility at 3 h ([2]; aqueous with cosolvent or surfactant or cyclodextrin, Red wine Cabernet-Sauvignon (F)) [µg/mL]	solubility at 3 h ([2]; aqueous with cosolvent or surfactant or cyclodextrin, grape Anthocyanin powder 1 g/L in water) [µg/mL]	solubility at 3 h ([2]; Water, OD 375 nm) [µg/mL]	solubility (physchem) [µg/mL]	solubility (physchem; Solubility of quercetin, 20 mg grape anthocyanin powder/ml, in a 22% ethanol solution) [µg/mL]	solubility at 1 min ([3]; aqueous with cosolvent or surfactant or cyclodextrin, Boiling, Rosé D'Anjou (F)) [µg/mL]	solubility at 1 min ([3]; water, Solubility of quercetin) [µg/mL]	absorption [4] [%]	solubility ([5]; 20% v/v ethanol, aqueous with cosolvent or surfactant or cyclodextrin, ethanol 20% v/v, without malvin chloride) [µg/mL]	Solubility of quercetin in presence of malvin chloride ([5]; citrate buffer pH 3.0, 20% v/v ethanol, possibly super saturated)	quercetin added to 1 ml malvin chloride with no precipitate ([5]; malvin chloride 1.1 mg/ml in citrate buffer pH 3.0, quercetin added in ethanol, slight precipitate at 1000 μg) [µg]
C[C@@H]1O[C@@H](Oc2c(-c3ccc(O)c(O)c3)oc3cc(O)cc(O)c3c2=O)[C@H](O)[C@H](O)[C@H]1O [Quercitrin, quercetin 3-L-rhamnoside]	316 (≈ 705 µM)	127 (≈ 283 µM)	53 (≈ 118 µM)	–	–	–	–	–	–	–	–	–	–	–	–
C[C@@H]1O[C@@H](OC[C@H]2O[C@@H](Oc3c(-c4ccc(O)c(O)c4)oc4cc(O)cc(O)c4c3=O)[C@H](O)[C@@H](O)[C@@H]2O)[C@H](O)[C@H](O)[C@H]1O [Rutin, quercetin 3β-D-rutinoside hydrate]	260	74	36	–	–	–	–	–	–	–	–	–	–	–	–
O=c1c(O)c(-c2ccc(O)c(O)c2)oc2cc(O)cc(O)c12 [quercetin]	90 (≈ 298 µM)	28 (≈ 92.6 µM)	2 (≈ 6.62 µM)	1 (≈ 3.31 µM)	3 (≈ 9.93 µM)	0.7 (≈ 2.32 µM)	0.3 (≈ 0.993 µM)	13 (≈ 43 µM)	75 (≈ 248 µM)	9 (≈ 29.8 µM)	2 (≈ 6.62 µM)	25	13 (≈ 43 µM)	extremely soluble	750
